Data taken from US20190008810A1, “METHOD FOR PREVENTION, TREATMENT AND ALLEVIATION OF INFECTIOUS DISEASES AND DISORDERS” (REPLICON HEALTH OY, priority 2016, published 2019).

Tests used:
[1] = tested on: cortisol, TSH, T4; experiment: Blood cortisol, TSH and T4 in healthy human volunteers, Example 5a; type: in vivo
Description: Blood levels of cortisol, thyroid stimulating hormone (TSH) and thyroxin, i.e. thyroid hormone T4 (T4) from standard EDTA blood sample were measured. 0-control and 2 day follow up measurement were conducted at approximately 08.55 am and the same day, 1.5 hour follow up, at 10:25 am. All measurements were conducted in “half fasting” state, i.e. half of the normal breakfast eaten 1.5 hours before the collection of the blood sample, and the other “half” immediately after 0-control measurement. First measurement without the DGA Activation served as the 0-control for both follow up measurements with the DGA Activation. First “DGA measurement” was conducted after 1.5 hours from 0-control (“fast effect”) and the second after 2 days (“persistent effect”). […] Last dose was 300 mg of D-glyceric acid mixed into water (or 430 mg of D-glyceric acid calcium salt dehydrate mixed into water), and otherwise the daily dose was 2*225 mg D-glyceric acid calcium salt dehydrate mixed into water. Male volunteers S1 and S9 weigh 75 kg and 80 kg respectfully.

[2] = 3-week safety feeding study with 80 rats; type: in vivo; details: three doses mixed into chow, 3 weeks; highest more than 100 times human doses
Description: Before initiating any clinical tests full proof of safety was received from 3 week in vivo feeding experiments with rats. This 3-week safety study with 80 rats was conducted in Finnish National Institute of Health with three different D-glyceric acid doses mixed into chow. […] Highest doses with rats in the safety study were more than 100 times the doses used for humans in any of the shorter tests presented here.

[3] = tested on: acute upper respiratory infection (nose and throat); experiment: Healing from acute upper respiratory infection in S1, Example 1c; type: in vivo, human
Text: After successful healing process in November 2014 (Example 1b), S1 was almost excited when they got acute upper respiratory infection when traveling abroad around New Year 2015. Symptoms: a virus infection in throat and rhinitis had lasted for three days before initiation of the DGA activation. S1 felt also feverish during this three-day period (unfortunately there was no thermometer around during the travel).
Administration on the fourth day of the infection: In the morning at 0940 am S1 took 2×250 mg of D-glyceric acid calcium salt dehydrate mixed into the water. Now, swelling and aching of the throat was quite substantial like had been the case already on the previous night, also some fever was felt.
At 0330 pm S1 took 2×180 mg of D-glyceric acid calcium salt mixed into water to keep the DGA Activation alive. Swelling had reduced a little but this could be due to circadian variation. Third dose of the day (2×180 mg) was received at 0915 pm. Throat continued to feel better towards the night, alleviation of the symptoms compared to the morning and to the previous night was significant.
Next morning at 0715 1×200 mg was received. […] However, some swelling in the throat remained but no pain. On top of the DGA Activation 1×500 mg of paracetamol was received at 0840 am, mimicking combination medication like e.g. Tylenol Cold.
Second 1×200 mg dose was received at 0200 pm. […]

[4] = tested on: CRP; experiment: Blood CRP in healthy mice, 4-day test; type: in vivo; details: 65 mg/kg/day in chow, 4 days, N=8; pairwise one-sided t-test p-value=0.04
Description: In this Example, CRP results from 3 separate preclinical tests are presented and analyzed. First 4-day CRP test was conducted with 8 healthy mice using individuals as their own controls. Second 7-day CRP test was conducted in discontinuous disease model. And third also 7-day CRP test was conducted in continuous disease model. CRP present in mouse serum samples were analyzed using mouse CRP ELISA kit (GWB-3B960E, Genway Biotech Inc.). All blood samples were collected at the same time of the day.
For evaluating possible effect of the DGA Activation in health, a 4-day test with healthy mice in Charles River Labs, Kuopio test facilities were conducted. In this test (prior initiation of the MPTP -model) the DGA was mixed into chow at the concentration of 65 mg/kg/day.

Compound: O=C(O)[C@H](O)CO [DGA, D-glyceric acid]
- TSH decline, fast effect ([1]; 1.5 hours): −24%
- decline of blood cortisol, fast effect ([1]; 1.5 hours after dose, both S1 and S9): more than 22%
- T4, average change from 0-control ([1]; S1 and S9): less than 1%
- decrease in blood cortisol ([1]; S1 and S9): 20-40%
- TSH decline ([1]; after 2 days): −13%
- adverse health effects (feed intake, body weight development) [2]: No adverse health effects were noticed
- fever next morning ([3]; S1, morning after first day of dosing): No fever was observed
- time to conquer the acute upper respiratory infection ([3]; S1, started on fourth day of infection, 2×250 mg then 2×180 mg doses): 12 to 48 h
- blood CRP vs own starting level [4]: overall decline in CRP was statistically significant
